Series [1] concerns the target NACHT, LRR and PYD domains-containing protein 3 (Homo sapiens, UniProt Q96P20). In words: Inhibition of NLRP3 inflammasome pathway in human THP-1 cells assessed as LPS-stimulated IL-1beta release pretreated with LPS for 3 hrs followed by compound addition for 30 mins prior to MSU addition and measured after 30 mins by ELISA. Type of series: cell-based.
Series [2] is described as follows: Acute toxicity in mouse assessed as mortality at 2000 mg/kg, po measured on day 1. The series is classed as organism-based. Particulars: in vivo, 24 h, time 1 day.
Series [3] is described as follows: Acute toxicity in C57BL/6J mouse assessed as mortality at 2000 mg/kg, po measured for 1 week. The conditions noted are these: in vivo, 168 h, time 1 weeks. The series is classed as organism-based.
Series [4] in a line: Acute toxicity in po dosed C57BL/6J mouse assessed as lethal dose at measured for 1 week. The conditions noted are these: in vivo, time 1 weeks. Type of series: organism-based.
Series [5] can be described thus: Chronic toxicity in mouse assessed as reduction in body weight at 300 mg/kg, po administered every day for 12 days. The series is classed as organism-based. Particulars: in vivo, 288 h, time 12 day.
Series [6] is described as follows: Chronic toxicity in ICR mouse assessed as change in nitrogen level at 300 mg/kg, po administered every day for 12 days. Type of series: organism-based. The conditions noted are these: in vivo, 288 h, time 12 day.
A short description of series [7]: Chronic toxicity in ICR mouse assessed as change in uric acid level at 300 mg/kg, po administered every day for 12 days. The conditions noted are these: in vivo, 288 h, time 12 day. The series is classed as organism-based.
Series [8] can be described thus: Chronic toxicity in ICR mouse assessed as change in creatinine level at 300 mg/kg, po administered every day for 12 days. Type of series: organism-based. The conditions noted are these: in vivo, 288 h, time 12 day.
Series [9] in a line: Chronic toxicity in ICR mouse assessed as change in AST level at 300 mg/kg, po administered every day for 12 days. Type of series: organism-based. Particulars: in vivo, 288 h, time 12 day.
The nature of series [10]: Chronic toxicity in ICR mouse assessed as change in ALT level at 300 mg/kg, po administered every day for 12 days. The series is classed as organism-based. Particulars: in vivo, 288 h, time 12 day.
A further series has as its system BMDM. In words: Induction ROS production in human BMDM cells by MitoSOX probe based analysis. The series is classed as functional, cell-based.
Series [11] is described as follows: Microsomal stability in human liver microsome assessed half life. Type of series: ADME. Particulars: liver microsomes. On the technique in general: Microsomes from liver hold many membrane-bound enzymes, among them those of drug oxidation.
A short description of series [12]: Cmax in ICR mouse at 1 mg/kg, iv measured upto 24 hrs by LC-MS/MS analysis. The series is classed as ADME, organism-based. The conditions noted are these: in vivo.
A short description of series [13]: Cmax in ICR mouse at 10 mg/kg, po measured upto 24 hrs by LC-MS/MS analysis. The series is classed as ADME, organism-based. The conditions noted are these: in vivo.
The nature of series [14]: Tmax in ICR mouse at 1 mg/kg, iv measured upto 24 hrs by LC-MS/MS analysis. The series is classed as ADME, organism-based. The conditions noted are these: in vivo.
Series [15] is described as follows: Tmax in ICR mouse at 10 mg/kg, po measured upto 24 hrs by LC-MS/MS analysis. The series is classed as ADME, organism-based. The conditions noted are these: in vivo.
The nature of series [16]: Half life in ICR mouse at 1 mg/kg, iv measured upto 24 hrs by LC-MS/MS analysis. Type of series: ADME, organism-based. The conditions noted are these: in vivo.
Series [17] can be described thus: Half life in ICR mouse at 10 mg/kg, po measured upto 24 hrs by LC-MS/MS analysis. The conditions noted are these: in vivo. Type of series: ADME, organism-based.
A short description of series [18]: AUC (0 to t) in ICR mouse at 1 mg/kg, iv measured upto 24 hrs by LC-MS/MS analysis. Type of series: ADME, organism-based. The conditions noted are these: in vivo.
The nature of series [19]: AUC (0 to t) in ICR mouse at 10 mg/kg, po measured upto 24 hrs by LC-MS/MS analysis. The series is classed as ADME, organism-based. The conditions noted are these: in vivo.
Series [20] in a line: Clearance in ICR mouse at 1 mg/kg, iv measured upto 24 hrs by LC-MS/MS analysis. Type of series: ADME, organism-based. Particulars: in vivo.
Series [21] is described as follows: MRT (0 to t) in ICR mouse at 1 mg/kg, iv measured upto 24 hrs by LC-MS/MS analysis. The series is classed as ADME, organism-based. Particulars: in vivo.
Series [22] is described as follows: MRT (0 to t) in ICR mouse at 10 mg/kg, po measured upto 24 hrs by LC-MS/MS analysis. Type of series: ADME, organism-based. The conditions noted are these: in vivo.
Series [23] can be described thus: Volume of distribution at steady state in ICR mouse at 1 mg/kg, iv measured upto 24 hrs by LC-MS/MS analysis. The series is classed as ADME, organism-based. Particulars: in vivo, read-out: Vdss.
The nature of series [24]: Oral bioavailability in ICR mouse at 10 mg/kg measured upto 24 hrs by LC-MS/MS analysis. Type of series: ADME, organism-based. The conditions noted are these: in vivo.
For series [25], the system named is Mus musculus. In words: Anti-inflammatory activity in MSU-induced acute gouty arthritis ICR mouse model assessed as reduction in ankle swelling at 30 mg/kg, po administered for 7 days. Type of series: functional, organism-based. The conditions noted are these: time 7.0 day.
Series [26] has as its system Mus musculus. Put plainly: Antialzheimer activity against scopolamine-induced cognitive impairment in C57BL/6 mouse assessed as increase in number of platform crossing at 30 mg/kg, po measured upto 14 days by morris water maze test. The conditions noted are these: time <= 14.0 day. The series is classed as functional, organism-based.
Series [27] can be described thus: Toxicity in C57BL/6 mouse assessed as total distance travelled at 30 mg/kg, po measured up to 7 days by open field test. The series is classed as organism-based. The conditions noted are these: in vivo, 168 h, time < 7 day.
The subject of the next series is HEK-293T. In words: Cytotoxicity against human HEK293T cells assessed as effect on cell viability at 50 uM incubated for 24 hrs by CCK-8 assay. Type of series: toxicity, cell-based.
Series [28] in a line: Glutathione reactivity in PBS buffer. Type of series: physicochemical.

SMILES strings stand for the structures. Calls of active or inactive are those of the source. The rule behind the calls is not given here.

By IC50 is commonly meant the concentration needed to halve the response being measured. As usually defined, the LD50 is the dose at which mortality reaches 50%. One may read the half-life as the time in which the quantity being followed falls by half. Read a low half-life as rapid decline. One may read the Cmax as the maximum level reached in the sampled fluid or tissue. Usually Tmax stands for the time from dosing to the highest level. Usually AUC(0-t) stands for exposure summed from dosing to a finite time, without extrapolation to infinity. Low values mean less exposure, high ones more exposure. By clearance is commonly meant the volume of plasma or blood freed of the substance per unit of time. The MRT last is a mean duration of stay, worked out from the concentration-time curve. One may read the bioavailability as dose-corrected exposure relative to a reference, in per cent. Read a high bioavailability as good availability.

Sequence of NACHT, LRR and PYD domains-containing protein 3 (Q96P20 whole entry, the tested form may be a part): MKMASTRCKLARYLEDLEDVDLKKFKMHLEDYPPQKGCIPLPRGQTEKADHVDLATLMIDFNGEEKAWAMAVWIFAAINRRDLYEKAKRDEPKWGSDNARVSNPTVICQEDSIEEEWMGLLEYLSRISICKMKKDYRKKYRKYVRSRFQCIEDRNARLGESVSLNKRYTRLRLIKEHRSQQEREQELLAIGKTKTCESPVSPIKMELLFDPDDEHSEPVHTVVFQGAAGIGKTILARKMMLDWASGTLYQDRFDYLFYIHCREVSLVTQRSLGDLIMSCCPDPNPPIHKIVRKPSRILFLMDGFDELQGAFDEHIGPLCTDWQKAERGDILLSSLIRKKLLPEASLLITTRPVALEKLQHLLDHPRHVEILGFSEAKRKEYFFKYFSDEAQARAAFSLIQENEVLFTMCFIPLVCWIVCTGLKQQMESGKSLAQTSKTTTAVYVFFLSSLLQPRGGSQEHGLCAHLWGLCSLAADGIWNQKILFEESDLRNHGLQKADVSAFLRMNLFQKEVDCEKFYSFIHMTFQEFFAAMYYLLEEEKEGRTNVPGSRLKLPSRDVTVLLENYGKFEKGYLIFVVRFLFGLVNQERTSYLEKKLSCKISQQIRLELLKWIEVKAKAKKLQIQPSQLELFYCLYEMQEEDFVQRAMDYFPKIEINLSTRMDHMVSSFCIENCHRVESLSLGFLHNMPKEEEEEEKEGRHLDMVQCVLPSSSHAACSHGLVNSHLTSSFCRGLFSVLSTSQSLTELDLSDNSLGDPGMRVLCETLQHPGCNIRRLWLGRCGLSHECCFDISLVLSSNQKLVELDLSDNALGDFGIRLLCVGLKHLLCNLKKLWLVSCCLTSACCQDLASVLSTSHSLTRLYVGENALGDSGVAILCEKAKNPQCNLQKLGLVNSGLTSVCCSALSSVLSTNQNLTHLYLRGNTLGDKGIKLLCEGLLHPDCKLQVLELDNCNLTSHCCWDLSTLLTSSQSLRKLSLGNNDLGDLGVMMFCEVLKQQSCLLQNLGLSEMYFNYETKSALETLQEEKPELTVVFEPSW

With `CC(C)(O)c1coc(S(=O)(=O)NC(=O)NC2CCCc3ccccc32)c1` (stereo not given), the IC50 in [1] was more than 1000 nM.
In the case of `CC(C)(O)c1csc(S(=O)(=O)NC(=O)Nc2c(-c3cccc(Cl)c3Cl)ccc3c2CCC3)c1`, the Activity result in [2] was “Toxic”; in series [3], “Non-toxic”; in series [5], “Non-toxic”; in [6], “Non-toxic”; in series [7], “Non-toxic”; in [8], “Non-toxic”. Moreover, the Activity result in [9], in series [10] and in series [27] was “Non-toxic” each time. In series [4], the LD50 at 168 h was 2000 mg/kg. For the same compound, the result in the series with BMDM, with Mus musculus [25] and with Mus musculus [26] was Active. Moreover, the values for the half-life in [11], in series [16] and in series [17] were 1.57 h, 2.57 h and 1.86 h, respectively. In addition, the maximum concentration (Cmax) in series [12] was 3920 ng/mL; in series [13], 7120 ng/mL. Also, the Tmax in [14] was determined as 4.98 min; in series [15] it was 0.5 h. The AUC(0-t) at 24 h amounted to 2610 ng·h/mL in series [18] and 9710 ng·h/mL in series [19]. Further, the clearance in series [20] was determined as 6.1 mL/min/kg. Also, the MRT last at 24 h came out at 1.75 h in series [21] and 1.73 h in series [22]. Besides, in series [23], the Vd turned out to be 0.638 L/kg. The bioavailability in series [24] was determined as 36.8%.
Regarding `CC(C)(O)c1coc(S(=O)(=O)NC(=O)NC2c3ccccc3-c3ccccc32)c1`, in series [1], the IC50 is more than 1000 nM.
For `CC(C)(O)c1coc(S(=O)(=O)NC(=O)Nc2c(-c3ccc4ccccc4c3)ccc3c2CCC3)c1`, the Activity result in the series on HEK-293T was “Non-toxic”. For the same compound, the Drug metabolism entry in [28] was “metabolite_detected”.
With `CC(C)(O)c1coc(S(=O)(=O)NC(=O)Nc2c(-c3ccc(N4CCOCC4)cc3)ccc3c2CCC3)c1`, the IC50 in series [1] is more than 1000 nM.
Take `CC(C)(O)c1coc(S(=O)(=O)NC(=O)Nc2c(-c3cccc(Cl)c3Cl)ccc3c2CCC3)c1`: the Activity result with HEK-293T was “Non-toxic”. Further, the Drug metabolism entry in series [28] is “metabolite_detected”.
On to `CC(C)(O)c1coc(S(=O)(=O)NC(=O)Nc2cccc3c2CCC3)c1`, for which the IC50 in series [1] is more than 1000 nM.
For `CC(C)(O)c1coc(S(=O)(=O)NC(=O)Nn2ccc3cccnc32)c1`, the IC50 in [1] was more than 1000 nM.
`C=C(C)c1csc(SCC(=O)Nc2c(-c3cccc(Cl)c3Cl)ccc3c2CCC3)c1`: in [1], the IC50 was more than 1000 nM.
On the same count and under the same terms, with `CC(C)(O)c1coc(S(=O)(=O)NC(=O)Nc2c3c(cc(Br)c2OC2CCCCC2)CCC3)c1` the figure was more than 1000 nM; with `COC(=O)c1csc(CNC(=O)Nc2c(-c3cccc(Cl)c3Cl)ccc3c2CCC3)c1`, more than 1000 nM; with `CC(=O)c1csc(NC(=O)Nc2c(-c3cccc(Cl)c3Cl)ccc3c2CCC3)c1`, more than 1000 nM.

The record behind these values is ChEMBL document CHEMBL6120950, “Deep-Learning-Driven Discovery of SN3-1, a Potent NLRP3 Inhibitor with Therapeutic Potential for Inflammatory Diseases” (J Med Chem, 2024).
